Test results reported in publication PMC8277129, “Bioconcentration of Several Series of Cationic Surfactants in Rainbow Trout” (Environmental Science & Technology, 2021).
Read-outs that look alike come from different tables or passages of the source. Marks after values point to notes of the source that are not given here.

Tests used:
[1] = design: method as in REACH dossier; conditions: aqueous; ref REACH dossier; cited from earlier work
[2] = design: method as in Perrin 1965, SRC, REACH, Perrin 1972, Hall 1957; conditions: ref Perrin 1965, SRC, REACH, Perrin 1972, Hall 1957, cited from earlier work; for pKa, experimental reference data: 25 °C
[3] = test system: juvenile rainbow trout (Oncorhynchus mykiss); test: Bioconcentration (BCF) experiment based on OECD 305, aqueous exposure to surfactant mixtures; assay type: in vivo; conditions: for factor by which BCF is lower at pH 6.2 than at pH 7.6: MIX1 vs MIX1pH; for BCF (kU/kT) / uptake rate constant (kU): whole fish; for uptake rate constant (kU): 14 d exposure, 28 d depuration
Method: (§1) Juvenile rainbow trout were purchased from EM lax in Västervik, Sweden, and held in the aquaria facility for one month prior to starting the experiment on August 28, 2018. Ethical approval for the experiments was obtained from Stockholm’s djurförsöksetiska nämnd (decision 9967–2017). The experiment was conducted in six 350 L fiberglass aquaria with a water renewal rate of 1.5 L min^–1 corresponding to a turnover time of […]. The water temperature and the air temperature in the aquaria room were 10 °C. The lighting was dim and programmed on a 12 h light/12 h dark cycle.
(§2) Three BCF experiments were conducted, one each for MIX1 and MIX2 at pH ∼7.6 (denoted MIX1 and MIX2 in the following), and one for MIX1 at pH ∼6.2 (MIX1pH). Each experiment consisted of a 14 d exposure phase and a 28 d depuration phase. There were also two control aquaria where unexposed fish were kept, one at pH 7.6 and one at pH 6.2. For the pH 6.2 aquaria, a 20% v:v formic acid solution was pumped into a premixing basin where it was mixed with the inflowing water before entering the aquarium. pH sensors monitored pH in the premixing basin and the aquarium. The pH for the MIX1 and MIX2 experiments was governed by the pH of the water supply. Water samples were collected at 8 time points during each experiment for the determination of pH and alkalinity. Water samples were collected daily during the exposure phase for determination of total organic carbon (TOC), which was measured with NDIR detection after acidification, purging and high-temperature catalytic combustion (Shimadzu TOC-L).
(§3) For the exposure phase, a methanol solution of the test chemical mixture was infused continuously at 4.0 μL min^–1 into the water inflow of the aquarium using a syringe pump. The target concentrations of the chemicals in water ranged from 2.5 to 100 μg L^–1 (Table 1). They were selected to be as low as possible to minimize the risk of toxic effects while still being high enough to enable collection of high-quality data, building on the results of the tissue distribution experiment.[32] The syringe pump was started in an aquarium containing no fish. After 16 h to allow the concentrations to stabilize, ∼80 rainbow trout were transferred to the aquarium. Over the following 14 d water samples were collected and fish were sacrificed according to the schedule in Table S5. The remaining fish were then transferred to a second aquarium that received water without chemical addition. Over the following 28 d further water samples were collected and fish were sacrificed (Table S5).
(§4) At each fish sampling, 4–6 fish were sacrificed. Fish were also sampled periodically from the control aquaria. Following stunning and severance of the spinal cord, the fish were placed in a polyethylene bag, weighed, and immediately frozen at −20 °C. The median fish weight at sacrifice was 10.94 g, with a 25th and 75th percentile of 8.43 and 13.58 g, respectively.
(§5) Three fish from each time point were prioritized for analysis based on proximity to the median fish weight. Each fish was semithawed, cut into 3–4 pieces, and homogenized with an Ultra-Turrax device. 150 mg of the homogenate was transferred to a preweighed 13 mL polypropylene tube, centrifuged to a pellet, and weighed. 50 μL of methanol was added and the prepared aliquot was frozen. For extraction internal standard solution (isotope labeled standards of Q10 (D21), Q14 (D29), and P16 (D33)), 3 mL of methanol and 3 steel balls (3.2 mm diameter) were added to the prepared aliquot. This mixture was mixed in a bullet blender for 1 min, and then placed in an ultrasound bath at 50 °C for 60 min. Following centrifugation, the supernatant was decanted and the extraction was repeated. The extracts were combined and a portion corresponding to 25–50 mg homogenate was cleaned up on a weak cationic exchange SPE column (WCX, 60 mg) as described elsewhere.[32] […]

[4] = ref Timmer and Droge (2017); cited from earlier work
[5] = Bioconcentration (BCF) experiment based on OECD 305, aqueous exposure to surfactant mixtures; assay type: in vivo, Oncorhynchus mykiss; conditions: whole fish, read-out: measured total elimination rate constant (kT) (converted)
Method: as §1, §2, §3, §4, §5

gills of rainbow trout = test: Mechanistic one-box mass balance model of gill uptake and elimination; conditions: for predicted gill elimination rate constant eq 1 (k2): from measured kU and modeled αW, αB, DFW
Description: To gain more mechanistic insight into the results, we formulated a simple one-box mass balance model of chemical bioconcentration in fish that considered diffusive uptake and elimination across the gills as well as biotransformation.[33] The flow of water across the gills and the flow of blood through the gills were modeled as perfusion limited resistances that constrain gill uptake and elimination. […] Consequently, these resistances are unknowns. Ion trapping effects caused by differences in pH between water at the gill surface and blood in the gills are considered, drawing on previous work on the uptake and elimination of ionizable organic chemicals across the gills of rainbow trout.[22],[23] Partitioning of the chemical from the dissolved phase into blood and into whole fish was calculated as the product of the membrane lipid–water distribution ratio (DMLW,T, including partitioning of both the neutral and the charged forms) and the fraction of membrane lipid in blood and whole fish. A detailed description of the model is provided in the SI (Text S3).
The contribution of the water perfusion and blood perfusion resistances were compared with the overall resistance for transport across the gills from water to blood (RW→B), which was calculated from the measured kU according to equation S4.3. […] For all of the other chemicals the blood resistance is insignificant compared to the overall resistance.
The rate constant for elimination across the gills, k2, can be defined as follows: [drawing 1] 1 where αB and αW are the neutral fractions of the chemical in the blood and in the water at the gill surface, respectively, and DFW is the fish-water distribution ratio of the chemical at the pH of blood (8.1) (see Text S3). Using the measured kU and the values of αW, αB, and DFW estimated for the model, k2 was calculated (Table 2).

In the case of `CCCCCCCCCC[N+](C)(C)CCCCCCCCCC.CCCCCCCCCC[N+](C)(C)CCCCCCCCCC.O=C([O-])CCCCC(=O)[O-]` [1-Decanaminium,N-decyl-N,N-dimethyl-, hexanedioate(2:1)], the “SURFACE TENSION” value [1] is given as 32.3 mN/m.
In the case of `CCCCCCCC/C=C/CCCCCCCCN(CCO)CCO` [2-[(2-hydroxyethyl)[(9E)-octadec-9-en-1-yl]amino]ethan-1-ol], the “SURFACE TENSION” value [1] is listed as 27 mN/m.
For `CCCCCCCCCCCCCC[N+](C)(C)CCCCCCCCCCCCCC.[Cl-]` [N,N-dimethyl-N-tetradecyltetradecan-1-aminium chloride], the “SURFACE TENSION” value [1] is listed as 28 mN/m.
In the case of `CCCCN(C)C` [N,N-dimethylbutylamine, reference compound], the “pKa, experimental reference data” value [2] is listed as 10.02.
In the case of `CCCCCCCCCCCCCCCCN(C)C` [N,N-dimethylhexadecan-1-amine], the “SURFACE TENSION” value [1] is given as 30.5 mN/m.
For `CCCN(C)C` [N,N-dimethylpropylamine, reference compound], the “pKa, experimental reference data” value [2] is given as 9.99.
For `CCCCNCCCC` [N-butylbutan-1-amine], the “SURFACE TENSION” value [1] is given as 50.6 mN/m.
In the case of `CCCCNC` [N-methylbutylamine, reference compound], the “pKa, experimental reference data” value [2] is listed as 10.9.
For `CCCCCCCCCN` [P9, Nonylamine], the “factor by which BCF is lower at pH 6.2 than at pH 7.6” value [3] was 22, the “BCF (kU/kT)” value ([3]; pH 6.2 (MIX1pH)) was 0.1 ^b L kg^–1 and the “BCF (kU/kT)” value ([3]; pH 7.6 (MIX1, MIX2)) was 2.2 L kg^–1. For the same molecule, the “pKa used (selected value)” value ([2]; selected per amine type, weighted from simulated and experimental analogue data) was “C9NH2 (10.6)” and the “Log DMLW,C (membrane-water partition coefficient of the charged form)” value [4] was 3.72.
With `CCCCCCCCCCCCN` [P12, Dodecylamine] the k el ([5]; pH 6.2 (MIX1pH)) was 1.42e-05 s⁻¹, the k el ([5]; pH 7.6 (MIX1, MIX2)) was 2.25e-06 s⁻¹ and the “factor by which BCF is lower at pH 6.2 than at pH 7.6” value [3] was 34. For the same molecule, the “uptake rate constant (kU)” value ([3]; pH 6.2 (MIX1pH)) was 0.36 L kg^–1 h^–1, the “BCF (kU/kT)” value ([3]; pH 6.2 (MIX1pH)) was 7.1 L kg^–1 and the “uptake rate constant (kU)” value ([3]; pH 7.6 (MIX1, MIX2), 10 °C) was 2.0 L kg^–1 h^–1. For the same molecule, the “BCF (kU/kT)” value ([3]; pH 7.6 (MIX1, MIX2)) was 250 L kg^–1, the “factor by which k2 was less than kT” value (gills of rainbow trout) was ~10 and the “pH dependency of k2 (factor between pH 7.6 and pH 6.2)” value (gills of rainbow trout; MIX1 vs MIX1pH) was 2.5. The Uptake resistance (gills of rainbow trout; lower pH (6.2), value printed in Figure 3) was 744 h m^-1, the k2/kT (gills of rainbow trout; pH 6.2 (MIX1pH)) was 0.04 and the “predicted gill elimination rate constant eq 1 (k2)” value (gills of rainbow trout; pH 6.2 (MIX1pH)) was 0.0022 h^–1. The k2/kT (gills of rainbow trout; pH 7.6 (MIX1, MIX2)) was 0.11, the “predicted gill elimination rate constant eq 1 (k2)” value (gills of rainbow trout; pH 7.6 (MIX1, MIX2)) was 0.0009 h^–1 and the “Log DMLW,C (membrane-water partition coefficient of the charged form)” value [4] was 5.58.
